Experimental findings from US20110009435A1, “HETERO BICYCLIC CARBOXAMIDE DERIVATIVES AND THEIR PHARMACEUTICAL USE AND COMPOSITIONS” (Pfizer, Inc., priority 2007, published 2011) are described below.

The target in one test is T1, Human recombinant MMP-13 (Homo sapiens, UniProt P45452).
T1 construct: made in house; host or cells: baculovirus expression (insect cells)
The test can be described thus: In vitro MMP inhibition assay, MMP-13 (fluorogenic peptide substrate cleavage, Ki). The class given is biochemical. The settings on record: human MMP-13, full length (FL); read-out: hMMP Ki 13/FL. Summed up: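 Baculovirus-expressed proenzyme, APMA- or trypsin-activated, preincubated 1 h at room temperature with inhibitor in pH 7.5 Tris/NaCl/CaCl2 buffer, 1% DMSO. Then 4 μM MCA/Dpa quenched peptide added; fluorescence rate read at 330/420 nm. Ki from Morrison-equation regression, substrate at or below Km, uncorrected.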

The next test deals with T2, Human recombinant MMP-7 (Homo sapiens, UniProt P09237).
T2 construct: 07/CD; made in house
T2 sequence (P09237 95-267): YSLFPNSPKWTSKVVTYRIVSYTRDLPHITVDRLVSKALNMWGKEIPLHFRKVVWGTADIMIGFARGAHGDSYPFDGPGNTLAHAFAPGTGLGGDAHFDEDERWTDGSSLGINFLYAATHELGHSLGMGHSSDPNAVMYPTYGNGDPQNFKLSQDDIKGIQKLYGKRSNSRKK
Briefly: In vitro MMP inhibition assay, MMP-7 (fluorogenic peptide substrate cleavage, Ki). It is filed as biochemical. The note with it: human MMP-7 (CD); read-out: hMMP Ki 07/CD. Here is the method: Matrix Metalloproteinase inhibitor compounds were analyzed in in vitro MMP Inhibition assays to determine their ability to inhibit the MMP cleavage of peptide substrates. Inhibition constants (Ki) were calculated from the assayed compound-MMP interactions.
Human recombinant MMP-1, MMP-2, MMP-3, MMP-7, MMP-9, MMP-12, MMP-13, MMP-14 and MMP-15 were used in these assays. The enzymes are prepared following known laboratory procedures. Protocols for the preparation and use of these enzymes are available in the scientific literature. See, e.g., Enzyme Nomenclature (Academic Press, San Diego, Calif., 1992) and the citations therein. See also Frije et al., J. Biol. Chem., 26(24), 16766-73 (1994).
The MMP-7 cDNA may be used to express the enzyme in E. coli inclusion bodies. Then the enzyme is solubilized in urea, purified on a preparative […] reverse phase HPLC column, and refolded in the presence of zinc acetate and purified for use. […]
The inhibitors are analyzed using a single low enzyme concentration with a single substrate concentration fixed at or below the Km. […] Apparent inhibitory constants are determined by non-linear regression of reaction velocity as a function of inhibitor and enzyme concentration using Morrison's equation, as described by Kuzmic, Anal. Biochem. 286, 45-50 (2000). […]

Molecules are shown by their SMILES.

As to `COc1cccc(CNC(=O)c2nc3ccc(F)c(OCCC4CCN(C(=O)CO)CC4)c3c(=O)[nH]2)c1` [Example 34, 6-fluoro-5-[2-(1-glycoloylpiperidin-4-yl)ethoxy]-N-(3-methoxybenzyl)-4-oxo-3,4-dihydroquinazoline-2-carboxamide], the Ki at Human recombinant MMP-13 is 0.118 nM; on Human recombinant MMP-7, above 10000 nM.
